Results: PMC7547722, “A versatile soluble siglec scaffold for sensitive and quantitative detection of glycan ligands” (Nature Communications, 2020)
“And” between values parts separate entries of the source, which are not always exact repeats. Equal entries are not always repeated. Each block holds one substance with its values, some of them ahead of it.

Assays:
U937 cells = assay: Flow cytometry, Siglec-Fc pre-complexed with Strep-Tactin, streptavidin or anti-human IgG1; type: cell-based; details: for Binding: Suppl Fig 4b
Method: (§1) Strep-Tactin-AF647 (0.55 μg/mL, 0.57 pmol), streptavidin (Biolegend), or anti-human igG1 (Biolegend) was added to Siglec supernatant (50 μL) or purified Siglec and allowed to sit at 4 °C for 15 min. After, the pre-complexed solution was added to cells in a 96-well U-bottom plate for 30 min at 4 °C. After, 200 μL of flow buffer (HBSS, 0.1% BSA, 5 mM EDTA) was added and the plate was spun down at 300 rcf for 5 min. The cells were resuspended in 200 μL of flow buffer and processed through the flow cytometer.
(§2) Flow cytometry was performed on a BD LSRFortessa™ X-20 cell analyzer using BD FACSDiva Software Version 8.0.1 and data was processed using FlowJo LLC. Version 9.9.6 and Graphpad Prism 8. The live, single cell populations were gated out with two gates to obtain the median fluorescence intensity (MFI), which indicates binding of the Siglec-Fc-secondary complex to the cell surface. Control cells that were incubated with Strep-Tactin-AF647 (0.55 μg/mL, 0.57 pmol) was used to determine the baseline fluorescence. Number of cells (# cells) plotted indicates percentage of max (% max).

basophils (CCR3+) = assay: Siglec ligands on peripheral blood immune cells, flow cytometry; type: cell-based, human; set-up: key: median fluorescence intensity (MFI) of Siglec-Fc complex binding; details: replicate values
Method: (§3) Siglec supernatant (50 μL) or purified Siglec was incubated with cells in a 96-well U-bottom plate for 30 min at 4 °C. Following the incubation, 200 μL of flow buffer (HBSS, 0.1% BSA, 5 mM EDTA) was added and the plate was spun down at 300 rcf for 5 min. Strep-Tactin-AF647 (0.55 μg/mL, 50 μL, 0.57 pmol), streptavidin (Biolegend), or anti-human IgG1 (Biolegend) was added to the cells and incubated for 30 min at 4 °C. After, 200 μL of flow buffer (HBSS, 0.1% BSA, 5 mM EDTA) was added and the plate was spun down at 300 rcf for 5 min. The cells were resuspended in 200 μL of flow buffer and processed through the flow cytometer.
as §1
(§4) For human splenocytes, the sample was homogenized in media through a 40 µm filter (Corning) under sterile conditions. Samples were centrifuged at 300 rcf for 5 min. The resulting pellet from the spleen sample and whole human blood were treated with RBC lysis buffer (7 min) and centrifuged at 300 rcf and the RBC lysis was repeated twice more until no RBC remained in the pellet. […]
as §2, with “Version 9.9.6 and Graphpad Prism 8.” left out, “Number of cells (# cells) plotted indicates percentage of max (% max).” left out

monocytes (CD14+) = assay: as above; type: cell-based, human; set-up: key: median fluorescence intensity (MFI) of Siglec-Fc complex binding; details: replicate values
Method: as §3, §1, §4
as §2, with “Version 9.9.6 and Graphpad Prism 8.” left out, “Number of cells (# cells) plotted indicates percentage of max (% max).” left out

eosinophils (Siglec-8+) = assay: as above; type: cell-based, human; set-up: key: median fluorescence intensity (MFI) of Siglec-Fc complex binding; details: replicate values
Method: as §3, §1, §4
as §2, with “Version 9.9.6 and Graphpad Prism 8.” left out, “Number of cells (# cells) plotted indicates percentage of max (% max).” left out

K562 cells = assay: Flow cytometry, pre-complexed Siglec-Fc binding; type: cell-based; details: Strep-Tactin-AF647, replicates
Method: as §1, §2

A549 cells = assay: Flow cytometry, pre-complexed Siglec-Fc binding; type: cell-based; details: Strep-Tactin-AF647, replicates
Method: as §1, §2

HuH7 cells = assay: Flow cytometry, pre-complexed Siglec-Fc binding; type: cell-based; details: Strep-Tactin-AF647, replicates
Method: as §1, §2

HEK293T cells = assay: Flow cytometry, pre-complexed Siglec-Fc binding; type: cell-based
Method: as §1, §2

Jurkat cells = assay: Flow cytometry, pre-complexed Siglec-Fc binding; type: cell-based; details: Strep-Tactin-AF647, replicates
Method: as §1, §2

MCF7 = assay: Flow cytometry, pre-complexed Siglec-Fc binding to breast cancer cell line; type: cell-based; details: Strep-Tactin-AF647, replicates
Method: as §1, §2

HS578T = assay: as above; type: cell-based; details: Strep-Tactin-AF647, replicates
Method: as §1, §2

BT549 = assay: as above; type: cell-based; details: Strep-Tactin-AF647, replicates
Method: as §1, §2

ZR-75-1 = assay: as above; type: cell-based; details: Strep-Tactin-AF647, replicates
Method: as §1, §2

MDA-MB-468 = assay: as above; type: cell-based; details: Strep-Tactin-AF647, replicates
Method: as §1, §2

T47D = assay: as above; type: cell-based; details: Strep-Tactin-AF647, replicates
Method: as §1, §2

MDA-MB-231 = assay: as above; type: cell-based; details: Strep-Tactin-AF647, replicates
Method: as §1, §2

[1] = system: neutrophils (CD15+), human splenocytes; assay: Siglec-Fc (CD22-Fc V1/V2, with or without Fc receptor block) binding to splenocytes, flow cytometry; type: cell-based; details: Suppl Fig 12; three replicate columns
Method: as §4, with “pellet. Samples were treated with human Fc-receptor blocking agent (TruStain FX, Biolegend) in flow buffer (HBSS, 0.1% BSA, 5 mM EDTA).” for “pellet.”
as §2, with “Version 9.9.6 and Graphpad Prism 8.” left out, “Number of cells (# cells) plotted indicates percentage of max (% max).” left out

[2] = system: B-cells (CD19+), human splenocytes; assay: Siglec-Fc binding to splenocytes, flow cytometry; type: cell-based; details: Suppl Fig 12; three replicate columns
Method: (§5) For human splenocytes, the sample was homogenized in media through a 40 µm filter (Corning) under sterile conditions. Samples were centrifuged at 300 rcf for 5 min. The resulting pellet from the spleen sample and whole human blood were treated with RBC lysis buffer (7 min) and centrifuged at 300 rcf and the RBC lysis was repeated twice more until no RBC remained in the pellet. Samples were treated with human Fc-receptor blocking agent (TruStain FX, Biolegend) in flow buffer (HBSS, 0.1% BSA, 5 mM EDTA). For analysis, the following cocktail was used: hSig8 (PerCP/Cy5.5, clone 7C9, Biolegend cat. no. 347108, 1:200), hCD123 (PE/Cy7, clone 6H6, Biolegend cat. no. 306010, 1:200), hCD19 (PE, clone SJ25C1, Biolegend cat. no. 363004, 1:200), hCD3 (FITC, BD Pharmingen cat. no. 555332, 1:50), hCD14 (BV605, clone M5E2, BD Horizon cat. no. 564056, 1:200), hCD15 (BUV395, clone HI98, BD Horizon cat. no. 563872, 1:200), hCD56 (BV510, clone NCAM16.2, BD Horizon cat. no. 563041, 1:200). For human peripheral blood samples, we additionally used hHLA-DR (APC-Cy7, clone L243, Biolegend cat. no. 307618, 1:200). Pre-complexed Siglec-Fc/Strep-Tactin-AF647 (described above) was added to the antibody cocktail, added to cells, and allowed to stain at 4 °C for 45 min. The cells were then centrifuged at 300 rcf for 5 min and resuspended in flow buffer containing 1 µg/mL propidium iodide prior to analysis by flow cytometry.
as §2

[3] = system: T-cells (CD3+), human splenocytes; assay: Siglec-Fc binding to splenocytes, flow cytometry; type: cell-based; details: Suppl Fig 12; three replicate columns
Method: as §5, §2

[4] = system: monocytes (CD14+), human splenocytes; assay: Siglec-Fc binding to splenocytes, flow cytometry; type: cell-based; details: Suppl Fig 12; three replicate columns
Method: as §5, §2

[5] = system: NK cells (CD56+), human splenocytes; assay: Siglec-Fc binding to splenocytes, flow cytometry; type: cell-based; details: Suppl Fig 12; three replicate columns
Method: as §5, §2

cDCs (CD123dim/HLA-DR+) = assay: Siglec ligands on peripheral blood immune cells, flow cytometry; type: cell-based, human; details: cDC; replicate values
Method: as §5, §2

NK cells (CD56+) = assay: as above; type: cell-based, human; details: replicate values
Method: as §5, §2

neutrophils (CD15+) = assay: as above; type: cell-based, human; details: replicate values
Method: as §5, §2

T-cells (CD3+) = assay: as above; type: cell-based, human; details: replicate values
Method: as §5, §2

pDCs (CD123high/HLA-DR+) = assay: as above; type: cell-based, human; details: pDC; replicate values
Method: as §5, §2

B-cells (CD19+) = assay: as above; type: cell-based, human; details: replicate values
Method: as §5, §2

[6] = system: K562 cells treated with Neuraminidase A; assay: Pre-complexed Siglec-Fc binding with or without Neu-A pretreatment; type: cell-based; details: Suppl Fig 7a
Method: as §1, §2
K562 cells were incubated with Neuraminidase A at 37 °C for 30 min with shaking every 5 min. Cells were then added to a 96-well U-bottom plate and incubated with pre-complexed Strep-Tactin-AF647/Siglec, as described above.

CMAS−/− HEK293 cells = assay: Pre-complexed Siglec-Fc binding to sialic acid-deficient cells; type: cell-based; details: Suppl Fig 7b; HEK CMASKO
Method: Custom crRNA (IDT) was designed to target human CMAS ([…]) and ST6Gal1 ([…]). Cells were seeded at 500,000 cells per well 1 day prior to transfection in a 6-well tissue culture plate. For one well of a 6-well plate, 20 pmol of Cas9 nuclease (IDT), 20 pmol of ATTO-550 labeled crRNA:tracrRNA (IDT) duplex, 8 μL Cas9 Plus reagent (IDT), and 16 μL CRISPRMAX reagent (Thermo Fisher) in 600 μL Opti-MEM medium (Gibco). One day after transfection, cells were removed from the plate by trypsin digestion, washed, resuspended in 300 μl of cell sorting medium (HBSS, 10% FBS, 1 mM EDTA), and stored on ice until sorting. Cells were sorted within the University of Alberta Flow Cytometry Core. The top 5% bright dyes stained with ATTO-550 were sorted into three 96-well plates containing regular culture medium at one cell per well. […]
as §2, with “Version 9.9.6 and Graphpad Prism 8.” left out, “Number of cells (# cells) plotted indicates percentage of max (% max).” left out

Strep-tag II = details: cited from earlier work

Substance: Sig-1-Fc R116A
- Binding (U937 cells; Amount of Siglec 3.75 ug/mL): 54.5 and 53.7 and 57.1
- Binding (U937 cells; Amount of Siglec 7.5 ug/mL): 57.9 and 62.1 and 64.6
- Binding (U937 cells; Amount of Siglec 15 ug/mL): 67.9 and 72.2 and 70.4
- Binding (U937 cells; Amount of Siglec 30 ug/mL): 133 and 128 and 148
- Binding (U937 cells; Amount of Siglec 60 ug/mL): 157 and 165 and 148

- Binding, Monocytes [4]: 15.5 and 9.76 and 8.04
Substance: Sig-8 R128A: Siglec-8-Fc essential arginine mutant
- Siglec-Fc binding (Figure 3d) (basophils (CCR3+)): 38.5 and 41.6 and 74.4
- Siglec-Fc binding (Figure 3d) (monocytes (CD14+)): 97.7 and 42.1 and 63.5
- Siglec-Fc binding (Figure 3d) (eosinophils (Siglec-8+)): 25.7 and 26.1 and 45
- binding of pre-complexed Siglec-Fc (MFI) (K562 cells): 133 and 120 and 116
- binding of pre-complexed Siglec-Fc (MFI) (A549 cells): 123 and 130 and 127
- binding of pre-complexed Siglec-Fc (MFI) (HuH7 cells): 92.2 and 88.8 and 95.7
- binding of pre-complexed Siglec-Fc (MFI) (HEK293T cells; HEK, Strep-Tactin-AF647, replicates): 70.7 and 73.5 (2×)
- binding of pre-complexed Siglec-Fc (MFI) (Jurkat cells): 80.5 and 89.6 and 88.9
- binding of pre-complexed Siglec-Fc (MFI) (U937 cells; U937, Strep-Tactin-AF647, replicates, Fig. 2): 94.6 and 90.4 and 92.5
- binding of pre-complexed Siglec-Fc (MFI) (MCF7): 129 (2×) and 126
- binding of pre-complexed Siglec-Fc (MFI) (HS578T): 127 and 117 and 114
- binding of pre-complexed Siglec-Fc (MFI) (BT549): 101 and 105 (2×)
- binding of pre-complexed Siglec-Fc (MFI) (ZR-75-1): 269 and 266 and 255
- binding of pre-complexed Siglec-Fc (MFI) (MDA-MB-468): 125 and 126 and 131
- binding of pre-complexed Siglec-Fc (MFI) (T47D): 86.1 and 97.6 and 94.1
- binding of pre-complexed Siglec-Fc (MFI) (MDA-MB-231): 154 (2×) and 157
- Binding, Neutrophils [1]: -13.8 and -28.2 and -29.9
- Binding, B-cells [2]: 3.45 and -1.72 and -2.87
- Binding, T-cells [3]: 6.21 and 2.36 and 4.73
- Binding, NK [5]: 4.43 and 1.18 and 2.36
- Siglec-Fc binding (Figure 3d) (cDCs (CD123dim/HLA-DR+)): 60.4 and -24.4 and 18
- Siglec-Fc binding (Figure 3d) (NK cells (CD56+)): 32.1 and 46.5 and 41.2
- Siglec-Fc binding (Figure 3d) (neutrophils (CD15+)): 38.5 and 12.4 and 5.83
- Siglec-Fc binding (Figure 3d) (T-cells (CD3+)): 20.5 and 10.3 and 64.2
- Siglec-Fc binding (Figure 3d) (pDCs (CD123high/HLA-DR+)): 74.5 and 11.6 and 48.8
- Siglec-Fc binding (Figure 3d) (B-cells (CD19+)): 41.1 and 12.5 and 42.1

Substance: Siglec-2
- Binding (HEK293T cells; Suppl Fig 7b, HEK WT): 631 and 654 and 721
- Binding ([6]; +Neuraminidase): 88.8 and 91.5 and 90.6
- Binding ([6]; -Neuraminidase): 2128 and 1497 and 1576
- Binding (CMAS−/− HEK293 cells): 86 and 84.2

Substance: Streptavidin: protein binding Strep-tag II with intermediate affinity [reference compound]
- Kd (Strep-tag II): 72 µM
- Siglec-1-Fc Binding (U937 cells; Suppl Fig 4a, Streptavidin alone): 150 and 128 and 134
